Laboratory results from ChEMBL document CHEMBL1240375, “Identification of a plasmid-borne resistance gene cluster comprising the resistance genes erm(T), dfrK, and tet(L) in a porcine methicillin-resistant Staphylococcus aureus ST398 strain” (2010).
≈ marks a conversion by molar mass, not a printed value.

Tests used:
Staphylococcus aureus [1] = experiment: Antimicrobial activity against Staphylococcus aureus RN4220 by broth microdilution method; type: functional
Staphylococcus aureus [2] = experiment: Antimicrobial activity against Staphylococcus aureus RN4220 transformant carrying plasmid pKKS25 and expressing erm(T), dfrK and tet(L) genes by broth microdilution method; type: functional
Staphylococcus aureus [3] = experiment: Antimicrobial activity against Staphylococcus aureus 25 transformant carrying plasmid pKKS25 and expressing erm(T), dfrKtet(L), tet(K), tet(M), mecA and blaZ genes by broth microdilution method

| Compound | MIC (Staphylococcus aureus [1]) | MIC (Staphylococcus aureus [2]) | MIC (Staphylococcus aureus [3]) |
| --- | --- | --- | --- |
| CC(=O)NC[C@H]1CN(c2ccc(N3CCOCC3)c(F)c2)C(=O)O1 [LINEZOLID] | 0.5 µg/mL (≈ 1.48 µM) | 0.5 µg/mL (≈ 1.48 µM) | 0.5 µg/mL (≈ 1.48 µM) |
| CCN1CCN(c2cc3c(cc2F)c(=O)c(C(=O)O)cn3C2CC2)CC1 [ENROFLOXACIN] | 0.25 µg/mL (≈ 0.696 µM) | 0.25 µg/mL (≈ 0.696 µM) | 0.25 µg/mL (≈ 0.696 µM) |
| CC1(C)S[C@@H]2[C@H](NC(=O)Cc3ccccc3)C(=O)N2[C@H]1C(=O)O [PENICILLIN G] | ≤ 0.03 µg/mL | – | 16 µg/mL (≈ 47.8 µM) |
| CC1(C)S[C@@H]2[C@H](NC(=O)[C@H](N)c3ccccc3)C(=O)N2[C@H]1C(=O)O [AMPICILLIN] | 0.06 µg/mL (≈ 0.172 µM) | 0.06 µg/mL (≈ 0.172 µM) | – |
| CN(C)[C@@H]1C(O)=C(C(N)=O)C(=O)[C@@]2(O)C(O)=C3C(=O)c4c(O)cccc4[C@@](C)(O)[C@H]3C[C@@H]12 [TETRACYCLINE] | 0.06 µg/mL (≈ 0.135 µM) | 32 µg/mL (≈ 72 µM) | 128 µg/mL (≈ 288 µM) |
| C=C[C@]1(C)C[C@@H](OC(=O)CSC(C)(C)CNC(=O)[C@H](N)C(C)C)[C@]2(C)[C@H](C)CC[C@]3(CCC(=O)[C@H]32)[C@@H](C)[C@@H]1O [VALNEMULIN] | 0.03 µg/mL (≈ 0.0531 µM) | 0.03 µg/mL (≈ 0.0531 µM) | 0.03 µg/mL (≈ 0.0531 µM) |
| CN[C@@H]1[C@H](O)[C@H](NC)[C@H]2O[C@@]3(O)C(=O)C[C@@H](C)O[C@H]3O[C@@H]2[C@H]1O [SPECTINOMYCIN] | 64 µg/mL (≈ 193 µM) | 64 µg/mL (≈ 193 µM) | 64 µg/mL (≈ 193 µM) |
| CN[C@@H]1[C@@H](O[C@H]2O[C@H](CO)[C@@H](N)[C@H](O)[C@H]2O)OC2C[C@@H](N)[C@@H](O[C@H]3[C@H](O)[C@@H](O)[C@H](N)C[C@@H]3N)OC2[C@@H]1O (stereo not given in full) [APRAMYCIN] | 1 µg/mL (≈ 1.85 µM) | 1 µg/mL (≈ 1.85 µM) | 4 µg/mL (≈ 7.41 µM) |
| C=C[C@]1(C)C[C@@H](OC(=O)CSCCN(CC)CC)[C@]2(C)[C@H](C)CC[C@]3(CCC(=O)[C@H]32)[C@@H](C)[C@@H]1O [TIAMULIN] | 0.12 µg/mL (≈ 0.243 µM) | 0.12 µg/mL (≈ 0.243 µM) | 0.5 µg/mL (≈ 1.01 µM) |
| CC[C@H]1OC(=O)C[C@@H](O)[C@H](C)[C@@H](O[C@@H]2O[C@H](C)[C@@H](O[C@H]3C[C@@](C)(O)[C@@H](O)[C@H](C)O3)[C@H](N(C)C)[C@H]2O)[C@@H](CC=O)C[C@@H](C)C(=O)/C=C/C(C)=C/[C@@H]1CO[C@@H]1O[C@H](C)[C@@H](O)[C@@H](OC)[C@H]1OC.O=C(O)C(O)C(O)C(=O)O [TYLOCIN TARTARATE] | 1 µg/mL | ≥ 64 µg/mL | ≥ 64 µg/mL |
| GENTAMICIN | 0.25 µg/mL | 0.25 µg/mL | – |
| Cc1onc(-c2ccccc2)c1C(=O)N[C@@H]1C(=O)N2[C@@H]1SC(C)(C)[C@@H]2C(=O)O [OXACILLIN] | 0.06 µg/mL (≈ 0.149 µM) | 0.06 µg/mL (≈ 0.149 µM) | 8 µg/mL (≈ 19.9 µM) |
| CCC[C@@H]1C[C@@H](C(=O)N[C@@H]([C@H]2O[C@H](SC)[C@H](O)[C@@H](O)[C@H]2O)[C@H](C)Cl)N(C)C1 [CLINDAMYCIN] | ≤ 0.12 µg/mL | ≥ 64 µg/mL | ≥ 64 µg/mL |
| O=C(N[C@H](CO)[C@H](O)c1ccc([N+](=O)[O-])cc1)C(Cl)Cl [CHLORAMPHENICOL] | 4 µg/mL (≈ 12.4 µM) | 4 µg/mL (≈ 12.4 µM) | 8 µg/mL (≈ 24.8 µM) |
| COc1cc(Cc2cnc(N)nc2N)cc(OC)c1OC [TRIMETHOPRIM] | 0.5 µg/mL (≈ 1.72 µM) | ≥ 128 µg/mL | ≥ 128 µg/mL |
| CC[C@H]1OC(=O)[C@H](C)[C@@H](O[C@H]2C[C@@](C)(OC)[C@@H](O)[C@H](C)O2)[C@H](C)[C@@H](O[C@@H]2O[C@H](C)C[C@H](N(C)C)[C@H]2O)[C@](C)(O)C[C@@H](C)C(=O)[C@H](C)[C@@H](O)[C@]1(C)O [ERYTHROMYCIN] | 0.25 µg/mL (≈ 0.341 µM) | ≥ 128 µg/mL | ≥ 128 µg/mL |
